Assay results: patent US20070244060A1, “Therapeutic Agent for Autoimmune Disease” (priority 2003, published 2007)

Key:
Format in all cases: cell-based, human
[1] = tested on: rheumatoid synoviocytes (RA); assay: ER stress-inducible apoptosis, ssDNA Apoptosis ELISA, rheumatoid synoviocytes; settings: RA synoviocytes (5 cases), 24 hours, FIG. 5
Experimental: (§1) The experiments were carried out as follows. […] Endoplasmic reticulum stress-inducible apoptosis was induced using tunicamycin at concentrations of 10, 30, and 100 μg/mL. Apoptosis was quantitated using the ssDNA Apoptosis ELISA kit from Chemicon International, Inc.

[2] = tested on: osteoarthritis synoviocytes (OA); assay: ER stress-inducible apoptosis, ssDNA Apoptosis ELISA, osteoarthritis synoviocytes; settings: OA synoviocytes (5 cases), 24 hours, FIG. 5
Experimental: as §1

synoviocytes = assay: Apoptosis induction in synoviocytes, nuclear condensation by Hoechst 33258 DNA staining; settings: FIG. 3B
Experimental: Then, synoviocytes were seeded at 2500 each to an eight-well Lab-Tek Chamber from the Nunc Company and were incubated for 24 hours in an incubator under 5% CO2 at 37° C. 67 nM siRNA was thereafter introduced into the synoviocytes using TransIT-TKO transfection reagent from the Miru Bio Corporation. After additional incubation for 48 hours in an incubator under 5% CO2 at 37° C., 50 μg/mL tunicamycin was added, followed by incubation for 48 hours under the same conditions. The cells were then fixed and nuclear condensation was confirmed by DNA staining with Hoechst 33258.

rheumatoid synoviocytes = assay: WST-8 assay of proliferation activity of rheumatoid synoviocytes after siRNA treatment; settings: 96 hours after siRNA treatment; anti-GFP siRNA negative control = 100; FIG. 3A
Experimental: The experiments were carried out as follows. Rheumatoid synoviocytes were seeded at 160 each into a 96-well, flat-bottom plate from the Falcon Co. After 24 hours, treatment was carried with anti-Synoviolin siRNA or anti-GFP siRNA, and the proliferation activity was investigated after an additional 96 hours. The GFP was used in this case as a negative control. The degree of cell proliferation was measured using a WST-8 assay from Dojindo Laboratories.

Substance	apoptosis (ssDNA Apoptosis ELISA) ([1]; tunicamycin 10 μg/mL)	apoptosis (ssDNA Apoptosis ELISA) ([1]; tunicamycin 30 μg/mL)	apoptosis (ssDNA Apoptosis ELISA) ([1]; tunicamycin 100 μg/mL)	apoptosis (ssDNA Apoptosis ELISA) ([2]; tunicamycin 10 μg/mL)	apoptosis (ssDNA Apoptosis ELISA) ([2]; tunicamycin 30 μg/mL)	apoptosis (ssDNA Apoptosis ELISA) ([2]; tunicamycin 100 μg/mL)	apoptosis induction in synoviocytes (synoviocytes; 50 μg/mL tunicamycin, 48 hours)	apoptosis induction in synoviocytes, co-use of siRNA with tunicamycin (synoviocytes; 67 nM siRNA 48 hours, then 50 μg/mL tunicamycin 48 hours)	proliferation activity of rheumatoid synoviocytes (GFP=100) (rheumatoid synoviocytes)
tunicamycin	0.73±0.30	0.84±0.35	0.81±0.28	2.18±1.19	2.76±1.84	3.65±2.53	caused apoptosis induction	–	–
anti-Synoviolin siRNA: small interfering RNA against the Synoviolin gene; sense CGUUCCUGGUACGCCGUCAUU (SEQ ID NO: 1), antisense UGACGGCGUACCAGGAACGUU (SEQ ID NO: 2) (listed as RNA, chemistry not given here)	–	–	–	–	–	–	–	increased	about 60%
